Experimental data as given in US6388131B2, “Benzene compounds as antiproliferative and cholesterol lowering agents” (Tularik, Inc., priority 1997, dated 2002).

Assays:
[1] = tested on: LDL receptor expression in HepG2 cells; experiment: Increase of LDL receptor expression in HepG2 cells, western-blot analysis; assay type: cell-based; conditions: Homo sapiens, minimum concentration at which a maximal induction of LDL receptor levels was observed
Procedure: Compounds and compositions of a particular embodiment of the invention are capable of specifically regulating LDL receptor gene expression. Compounds may be evaluated in vitro for their ability to increase LDL receptor expression using western-blot analysis, for example, as described by Tam et al. (J. Biol. Chem. 1991, 266, 16764). Preferred such compounds and compositions provide ECmax of less than about 50 μM, preferably less than about 5 μM, more preferably less than about 0.5 μM, more preferably less than about 0.05 μM, and most preferably less than about 0.005 μM in this assay (see, e.g. Example 28 herein). Established animal models to evaluate hypocholesterolemic effects of compounds are known in the art. For example, compounds disclosed herein are shown to lower cholesterol levels in hamsters fed a high-cholesterol diet, using a protocol simllar to that described by Spady et al. (J. Clin. Invest. 1988, 81, 300), Evans et al. (J. Lipid Res. 1994, 35, 1634), and Lin et al (J. Med. Chem. 1995, 38, 277).
Certain compounds were evaluated for their ability to increase LDL receptor expression in HepG2 cells using western-blot analysis as described by Tam et al., (J. Biol. Chem., 1991, 266, 16764). […] In all cases, the level of induction was greater than that observed under lipid-free conditions (activated system) in the absence of the test compounds.

HeLa cells = experiment: Inhibition of in vitro growth of HeLa cells (Alamar Blue uptake); assay type: cell-based; conditions: Homo sapiens; concentration required to inhibit by 50% the uptake of Alamar Blue by HeLa cell cultures
Excerpt: Compounds and compositions of a particular embodiment of the invention display specific toxicity to various types of cells, preferably exerting their cytotoxic effects by interacting with cellular tubulin, preferably covalently and irreversibly. Compounds and compositions may be evaluated in vitro for their ability to inhibit cell grow, for example, as described by Ahmed et al. (J. Immunol. Methods 1994, 170, 211). […] Established animal models to evaluate antiproliferative effects of compounds are known in the art. For example, compounds can be evaluated for their ability to inhibit the growth of human tumors grafted into immunodeficient mice using methodology similar to that described by Rygaard and Poylsen (Acta Pathol. Microbiol. Scand. 1969, 77, 758) and Giovanella and Fogh (Adv. Cancer Res. 1985, 44, 69).
Compounds were evaluated for their ability to inhibit in vitro the growth of HeLa cells, an immortal cell line derived from a human cervical carcinoma commonly used to evaluate the cytotoxicity of potential therapeutic agents. The following data reflect the cytotoxicity of selected examples of the present invention. The values given represent the concentration of test compound required to inhibit by 50% the uptake of Alamar Blue (Biosource International, Camarillo, Calif.) by HeLA cell cultures, which correlates directly with the overall levels of cellular metabolism in the culture, and is generally accepted as an appropriate′marker of cell growth. The test was conducted according to the method of Ahmed et al. (J. Immunol. Methods 1994, 170, 211).

COc1ccc(NS(=O)(=O)c2cc(Br)c(F)c(F)c2F)cc1 [Example 10, 1-Bromo-2,3,4-trifluoro-5-[(4-methoxyphenyl)aminosulfonyl]benzene]
EC (max) [1]: 1.5 µM
IC50 (HeLa cells): 500 nM

COc1ccc(NS(=O)(=O)c2cc(F)c(F)c(F)c2)cc1 [Example 22, 3,4,5-Trifluoro-1-[(4-methoxyphenyl)aminosulfonyl]benzene]
EC (max) [1]: 5 µM
IC50 (HeLa cells): 5000 nM

COc1ccc(NS(=O)(=O)c2cc(F)c(F)c(F)c2F)cc1 [Example 20, 2,3,4,5-Tetrafluoro-1-[(4-methoxyphenyl)aminosulfonyl]benzene]
EC (max) [1]: 1.5 µM
IC50 (HeLa cells): 500 nM

COc1ccc(NS(=O)(=O)c2ccc(F)c(F)c2F)cc1O [Example 17, 1-[(3-Hydroxy-4-methoxyphenyl)aminosulfonyl]-2,3,4-trifluorobenzene]
IC50 (HeLa cells): 1500 nM

COc1ccc(NS(=O)(=O)c2c(F)c(F)c(F)c(F)c2Br)cc1O [Example 3, 1-Bromo-3,4,5,6-tetrafluoro-2-[(3-hydroxy-4-methoxyphenyl)aminosulfonyl]benzene]
EC (max) [1]: 0.15 µM
IC50 (HeLa cells): 50 nM

COc1ccc(NS(=O)(=O)c2cc(F)c(F)c(F)c2)cc1O [Example 23, 3,4,5-Trifluoro-1-[(3-hydroxy-4-methoxyphenyl)aminosulfonyl]benzene]
IC50 (HeLa cells): 1500 nM

COc1ccc(NS(=O)(=O)c2c(F)c(Cl)c(F)c(Cl)c2F)cc1 [Example 8, 1,3-Dichloro-2,4,6-trifluoro-5-[(4-methoxyphenyl)aminosulfony]benzene]
EC (max) [1]: 0.5 µM
IC50 (HeLa cells): 150 nM

COc1ccc(NS(=O)(=O)c2ccc(F)c([N+](=O)[O-])c2)cc1 [Example 1, 4-Fluoro-1-[(4-methoxyphenyl)aminosulfonyl]-3-nitrobenzene]
EC (max) [1]: 5 µM

COc1ccc(CS(=O)(=O)c2c(F)c(F)c(F)c(F)c2F)cc1 [Example 24, 4-Methoxybenzyl Pentafluorophenyl Sulfone]
EC (max) [1]: 1.5 µM
IC50 (HeLa cells): 5000 nM

COc1ccc(NS(=O)(=O)c2cc(F)c(F)c(F)c2F)cc1O [Example 21, 2,3,4,5-Tetrafluoro-1-[(3-hydroxy-4-methoxyphenyl)aminosulfonyl]benzene]
EC (max) [1]: 0.5 µM
IC50 (HeLa cells): 150 nM

COc1ccc(NS(=O)(=O)c2c(F)c(F)c(F)c(Br)c2F)cc1 [Example 5]
EC (max) [1]: 0.5 µM
IC50 (HeLa cells): 150 nM

COc1ccc(NS(=O)(=O)c2c(F)c(Cl)c(F)c(Cl)c2F)cc1O [Example 9, 1,3-Dichloro-2,4,6-trifluoro-5-[(3-hydroxy-4-methoxyphenyl)aminosulfonyl]benzene]
EC (max) [1]: 0.15 µM
IC50 (HeLa cells): 50 nM

COc1ccc(NS(=O)(=O)c2ccc(F)c([N+](=O)[O-])c2)cc1O [Example 2, 4-Fluoro-1-[(3-hydroxy-4-methoxyphenyl)aminosulfonyl]-3-nitrobenzene]
EC (max) [1]: 1.5 µM
IC50 (HeLa cells): 150 nM

COc1ccc(NS(=O)(=O)c2c(F)c(F)c(F)c(F)c2Br)cc1 [Example 4, 1-Bromo-3,4,5,6-tetrafluoro-2-[(4-methoxyphenyl)aminosulfonyl]benzene]
EC (max) [1]: 0.5 µM
IC50 (HeLa cells): 150 nM

COc1ccc(NS(=O)(=O)c2cc(F)c(F)c(F)c2Br)cc1 [Example 11, 1-Bromo-4,5,6-trifluoro-2-[(4-methoxyphenyl)aminosulfonyl]benzene]
EC (max) [1]: 1.5 µM
IC50 (HeLa cells): 500 nM

COc1ccc(NS(=O)(=O)c2c(F)c(F)c(Br)c(F)c2F)cc1 [Example 6, 1-Bromo-2,3,5,6-tetrafluoro-4-[(4-methoxyphenyl)aminosulfonyl]benzene]
EC (max) [1]: 50 µM
IC50 (HeLa cells): 5000 nM

COc1ccc(NS(=O)(=O)c2c(F)c(F)c(Cl)c(F)c2F)cc1 [Example 7, 1-Chloro-2,3,5,6-tetrafluoro-4-[(4-methoxyphenyl)aminosulfonyl]benzene]
EC (max) [1]: 50 µM
IC50 (HeLa cells): 1500 nM

COc1ccc(NS(=O)(=O)c2c(F)cc(F)c(F)c2F)cc1 [Example 19, 2,3,4,6-Tetrafluoro-1-[(4-methoxyphenyl)aminosulfonyl]benzene]
EC (max) [1]: 15 µM
IC50 (HeLa cells): 5000 nM
